The results in this text go back to US8163742B2, “Di-amino-substituted heterocyclic compounds and methods of use” (Amgen Inc., priority 2006, dated 2012).

This test relates to SCF-stimulated UT-7 cells. In words: SCF stimulated UT7 proliferation/survival assay. It counts as cell-based. Particulars: Homo sapiens, average value. The text has this: SCF and GM-CSF Stimulated UT7 Proliferation/Survival Assay:
The purpose of this assay is to test the general anti-proliferative/cytotoxic effect of small molecule compounds on SCF or GM-CSF-stimulated UT-7 cells. Preventing SCF stimulated proliferation/survival is consistent with an on-mechanism effect whereas inhibition of GM-CSF driven proliferation/survival is indicative of off-target effects. UT-7 is a factor dependent human megakaryoblastic leukemia cell line that can be grown in either IL-3, GM-CSF, EPO or SCF (these cells have been confirmed to carry wild type c-kit receptor). Cells are maintained in growth media (IMDM, 10% HI-FBS, 1×PGS, 1 ng/mL GM-CSF). […] The amount of ATP is then measured as a surrogate marker for cell viability. This is accomplished by adding 50 μL of Perkin Elmer ATP 1 step reagent (as per instructed in the reagent manual, Cat. No. 6016739), incubating at RT for 15 min and reading the luminescence with a Perkin Elmer Topcount NXT™HTS (model c384) plate reader. The amount of SCF or GM-CSF stimulated viable cells in the presence of compound compared with in the presence of vehicle alone (HI control) is calculated using the formula: % control (POC)=(cpd−average LO)/(average HI−average LO)*100. […]

Broadly, the IC50 is the point on the concentration scale where inhibition reaches its midpoint. The low end stands for inhibition by little substance, the high end for a need for much substance.

Take `FC(F)(F)c1cccc(Nc2noc3c(Nc4nccc(-c5cccnc5)n4)c(Cl)ccc23)c1` [Example 1, 6-chloro-N-7-(4-(pyridin-3-yl)pyrimidin-2-yl)-N3-(3-(trifluoromethyl)phenyl)benzo[d]isoxazole-3,7-diamine]: the 50% inhibitory concentration (IC50) was about 44 nM.
